The target of assay [1] is Botulinum neurotoxin type A (Clostridium botulinum (strain Hall / ATCC 3502 / NCTC 13319 / Type A)) (UniProt P0DPI1). Briefly: Inhibition of Clostridium botulinum strain Hall A hyper botulinum neurotoxin type A1 in rat spinal cord cells assessed as intact SNAP25 protein level at 1 mM after 24 hrs by Western blot using monoclonal anti-SNAP25 antibody. Format: cell-based. Background: A western blot detects proteins with antibodies after separation by electrophoresis.

Assay [2] has the same target. The experiment in a line: Inhibition of Clostridium botulinum strain Hall A hyper botulinum neurotoxin type A1 in rat spinal cord cells assessed as intact SNAP25 protein level at 200 uM after 24 hrs by Western blot using monoclonal anti-SNAP25 antibody. It counts as cell-based.

Calls of active or inactive are those of the source. The rule behind the calls is not given here.

Chain of Botulinum neurotoxin type A (Clostridium botulinum (strain Hall / ATCC 3502 / NCTC 13319 / Type A)) (P0DPI1 2-448 limits assumed): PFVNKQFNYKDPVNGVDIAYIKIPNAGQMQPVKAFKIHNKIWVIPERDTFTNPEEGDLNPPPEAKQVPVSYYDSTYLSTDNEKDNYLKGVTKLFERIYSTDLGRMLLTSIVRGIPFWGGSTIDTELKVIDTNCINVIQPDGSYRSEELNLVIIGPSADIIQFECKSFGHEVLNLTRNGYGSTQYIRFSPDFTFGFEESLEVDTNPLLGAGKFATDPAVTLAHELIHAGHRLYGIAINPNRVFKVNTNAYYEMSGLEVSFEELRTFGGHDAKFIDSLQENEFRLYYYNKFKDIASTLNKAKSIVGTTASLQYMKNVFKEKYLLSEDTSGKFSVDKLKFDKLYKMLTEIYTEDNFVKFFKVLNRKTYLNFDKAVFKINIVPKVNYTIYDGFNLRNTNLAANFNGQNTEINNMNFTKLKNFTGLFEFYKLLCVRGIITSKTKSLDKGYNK

In the case of `CC(=O)O[C@@H]1C[C@H](O)[C@]23CC[C@@H](O)C[C@H]2[C@H]1[C@H](O)OC3`, in assay [1], the inhibition entry was “inactive”. With `CC(=O)O[C@@H]1C[C@H](O)[C@]23CC[C@H](O)C[C@H]2[C@H]1[C@H](O)OC3`, the inhibition result in assay [1] was “inactive”. As for `CC(=O)O[C@@H]1C[C@H](O)[C@@]23CO[C@@H](O)[C@]1(C)[C@@H]2C[C@@H](O)[C@]1(C)[C@@H]3C(=O)[C@H](OC(C)=O)[C@@]2(C)[C@H](c3ccoc3)C[C@H]3O[C@]321`, in assay [2], the inhibition entry is “Active”.

Values taken from ChEMBL document CHEMBL1159076, “Toosendanin: synthesis of the AB-ring and investigations of its anti-botulinum properties (Part II)” (Bioorg Med Chem, 2010).
